Laboratory results taken from patent US11883538B2, “Sustained release compositions comprising micronized tolcapone” (Som Innovation Biotech, S.L., priority 2016, dated 2024).

Assay: Determination of tolcapone's particle size (laser analyzer MASTERSIZER 2000, Ph. Eur. 2.9.31)
Format: physicochemical
Conditions: wet dispersion in water for injection
Text: Determination of Tolcapone's Particle Size
Particle size measurement (Dv,0.1, Dv,05, Dv,0.9 and Dv,1.0) may be determined according to the general method described in section 2.9.31 of the European Pharmacopeia in particular using a particle size laser analyzer MASTERSIZER 2000 from Malvern featuring a wet dispersion unit HYDRO 2000 SM for small volumes of sample.
Material: • Sample: Tolcapone suspension • Refraction index: 1.59 (default) • Dispersant: water for injection • Refraction index: 1.33
Cycles: • Measurements for each aliquot: 3 • Lag time: 12 s • Pump stirring velocity: 2500 rpm
Measuring Time: • Measure: 12 s (in triplicates) • Measure snaps: 12000 • Background: 10 s • Background snaps: 10000
Three readings are made for each sample.
Thus, Dv,0.9 lower than 54.33 μm that 90% of the volume of the particles is in particles which are smaller 54.33 μm.

Row | Dv,0.1 | Dv,0.5 | Dv,0.9 | Dv,1.0 | Structure (SMILES)
1 | <6.09 μm | <17.62 μm | <54.33 μm | <316.23 μm | Cc1ccc(C(=O)c2cc(O)c(O)c([N+](=O)[O-])c2)cc1 [micronized tolcapone, (3,4-dihydroxy-5-nitrophenyl)(4-methylphenyl)methanone]
2 | <22.45 μm | <87.23 μm | <307.86 μm | <1096.48 μm | Cc1ccc(C(=O)c2cc(O)c(O)c([N+](=O)[O-])c2)cc1 [non-micronized tolcapone, (3,4-dihydroxy-5-nitrophenyl)(4-methylphenyl)methanone]
